{"source": "patent US9427433B2", "about": "“Methods and compositions for enhancing fertility and/or inhibiting pregnancy failure and restoring glucose tolerance” (Queen's University at Kingston, priority 2011, dated 2016)", "key": {"[1]": {"system": "high fat fed female NZO mice", "assay": "Ovarian histology of macrolide-treated chronically high fat fed NZO mice", "assay_type": "in vivo, mouse", "conditions": "chronically high fat diet fed NZO mice", "protocol": "Statistical differences between groups were measured by two-way analysis of variance (ANOVA) followed by Bonferroni post-hock t-test comparing effect of all tested macrolides on mean follicular structure counts/unit area at 95% confidence. Scale bars=200 μm for B, D, F, G, H, I, J and 50 μm for A, C, E. N=10 (HFD-NZO), 6 per treatment group. A, C and E are higher magnifications of B, D and F respectively. * denoting ovarian cyst(s).\n(§1) For the comparative evaluation of other macrolide drugs to tacrolimus, mice starting at 7 weeks of age were maintained on the high fat diet for a total of 13 weeks of study period. Mice were entered into the experiments when determined to be glucose intolerant as described above. Methods of drug administration and other experimental methods were as described above."}, "[2]": {"system": "female NZO mice fed a continuous high fat diet", "assay": "Weight loss, comparison of macrolides", "assay_type": "in vivo, mouse", "conditions": "tacrolimus 0.05 or 0.1 mg/kg, pimecrolimus 0.1 mg/kg, sirolimus 0.1 mg/kg s.c. every other day for three weeks; vs vehicle", "description": "as §1"}, "[3]": {"system": "NZO mice fed a high fat diet", "assay": "Implantation rate and resorption, comparison of macrolides", "assay_type": "in vivo, mouse", "conditions": "vs vehicle", "protocol": "as §1\nPeri-implantation (E4.5) and post-implantation (E6.5) pregnant and/or pseudopregnant (E4.5bid and E6.5bid) mouse uteri were prepared after mating respectively with fertile and/or vasectomized males as previously described (Herington et al. Endocrinol 2009 150: 4404-4413). The morning of vaginal plug detection was considered as gestational day 0.5 (E0.5 or Gd.0.5). An average number of twenty Concanavalin A(ConA)-coated sepharose beads (average size of 0.1 mm-diameter) (Sigma-Aldrich, Burlington, Ontario, Canada) was injected into the lumen of the left uterine horn of anesthetized animals between hours 13:00 and 16:00 on day 2.5 of pseudopregnancy according to the procedure described by Herington et al. (Endocrinol, 2009 150: 4404-4413). With the use of Ketamine/Xyalzine anesthesia and cardiac puncture, all animals were sacrificed at the age of 16-18 weeks between the morning hours 09:00-11:00. Pregnant and pseudopregnant mice were sacrificed in the morning of days 4.5 and 6.5 of their respective pregnancy. Blood samples were collected from all animals and were let stand for 1 hour at room temperature before isolation of the serum. Serum samples were stored at −80° C. until they were analyzed for their steroid hormones and lipid contents by appropriate laboratory procedures such as radio-immunoassay (RIA) all of which were conducted at the Department of Clinical Chemistry (Kingston General Hospital, Kingston, Ontario, Canada). Ovaries, oviducts and uteri were carefully dissected out of carcasses and were placed in ice-cold phosphate buffered saline (PBS)-containing petri dishes. Under a dissecting microscope, uteri were carefully isolated from their attached uterine tubes, trimmed of all mesenteric fat and were immediately weighed. The numbers of corpora lutea and implantation sites (viable and resorbed) were counted, respectively, from E4.5 and E6.5 pregnant mouse ovaries and uteri. For protein and RNA extraction, virgin uteri and segments of uterine horns containing inter-implantation sites of pregnant and pseudopregnant uteri were transected and snapped frozen in liquid nitrogen.\nExamination of external morphological features of uteri of pregnant mice, including counts of implantation sites and photography was performed using a computerized dissecting microscope (Leica Diagnostic Instruments, USA) and the image acquisition and analytic software (SPOT 2.2.0). Percentage of peri-implantation embryo loss was calculated as described by Bindali and Kaliwal (Ind. Health, 2002 40:191-197), using the formula: % Preimplantation loss=[Total number of corpora lutea−Total number of implantation]/Total number of corpora lutea. Immunohistochemical localization and assessment of microscopic morphological features of implantation and inter-implantation sites in normoglycemic and diabetic NOD mice were performed on methacarn (60% methanol, 30% chloroform and 10% acetic acid)-fixed specimens. […]"}, "[4]": {"system": "NZO mice fed a high fat diet", "assay": "Fasting serum glucose, fasting serum insulin and glucose tolerance, comparison of macrolides", "assay_type": "in vivo, mouse", "protocol": "(§2) Female mice were administered tacrolimus (0.1 mg/kg or 0.05 mg/kg, n=6/group), vehicle (n=10), pimecrolimus (0.1 mg/kg, n=6) or sirolimus (0.1 mg/kg, n=6) subcutaneously every other day for 3 weeks.\nas §1\nGlucose Tolerance Test (GTT): was performed according to standard protocol (Ayala et al 2010). Briefly, basal glucose levels were measured for conscious mice individually caged in 1000 cc plastic mouse caging using a one-touch ultra glucose strips and meter (Acqui-check Aviva, Roche, Montreal, Canada) and approximately 30 microliters of blood obtained via tail venipuncture prior to fasting for six hours in cages equipped with hardwood bedding. Fasting blood glucose was recorded at the end of the six hours fasting period. Mice were then tested for oral glucose tolerance (OGTT) or for insulin sensitivity (Si). For OGTT alert mice were then given 20% D-glucose (2 g/kg body weight) sterile syrup administered orally. For Si experiments mice were given 20% D-glucose (2 g/kg body weight) sterile syrup by intraperitoneal administration through a 1 ml D29 gage “½” insulin syringe (Fisher Scientific, Montreal, Canada). Then after, blood glucose was recorded at 15, 30, 45, 60, 90 and 120 minutes respectively. For Si experiments blood glucose was determined only at 15 minutes. Glucose tolerance graphs were generated by blotting mean±standard error of the mean (SEM) of the recorded glucose data per mouse per minute collection time. One way analysis of variance (ANOVA) followed by student t-test was performed to determine alpha values for statistical differences among mean blood glucose values across experimental mice groups.\nFasting immuno-reactive mouse insulin levels were quantitatively determined in citrated platelet-free plasma samples obtained from 6 hours-fasting mice using an Ultrasensitive mouse Insulin Eliza kit (#90080, Crystal chem., IL, USA) according to the manufacturer instructions. Briefly, platelet-free plasma were isolated from freshly obtained citrated whole blood samples of fasting mice and the provided insulin standards were incubated overnight on a shaking platform at 4 C^0 in a 96 wells plate coated with Guinea pig anti-insulin. Afterwards, unbound sample materials were thoroughly washed with the supplied wash buffers and the bound guinea pig anti-insulin/mouse insulin complex immobilized to the microplate wells were incubated with Horseradish peroxidase (HRP)-conjugated anti-insulin antibody for 40 minutes at room temperature with continuous agitation. Excess unbound HRP-conjugated anti-insulin antibodies were then washed excessively with wash buffers and the HRP-mediated color reaction was developed with the addition of 3,3′,5,5′ tetramethylbenzidine (TMB) substrate solution. The amount of insulin (ng/ml) present in the test samples were then measured via interpolation using the standard curve generated by plotting absorbance (at A^0450-A^0635) versus the corresponding concentration of a wide range (0.1-12.8 ng/ml) of mouse insulin standards according to the provider's instructions. Graphic representation of differences in mean±sem of plasma insulin among different groups of mice were blotted using Prism5 (La Jolla, Calif., USA) software and statistically significant differences (at 95% confidence) were calculated for the different test groups of mice using one way ANOVA followed by Bonferroni modified student t-test comparing differences between individual experimental groups."}, "[5]": {"system": "type 2 diabetes NZO mouse model", "assay": "HOMA-IR, HOMA-B and insulin sensitivity index (Si)", "assay_type": "in vivo", "protocol": "as §2\nHOMA IR=fasting glucose (mmol/L)×fasting insulin ([…])/22.5 according to the method of Bonora E et al., 2000. Pancreatic β-Cell function (HOMA-B) was calculated according to the method of Tresaco B et al., 2005, HOMA-B=[20×[…]). Insulin sensitivity (Si) was determined according to the method of Matthews D et al., 1985. Si=[basal glucose]−[glucose 15 min]/15)."}, "[6]": {"conditions": "0.1 mg/kg s.c. every other day for 3 weeks, vs vehicle"}}, "data": [{"smiles": "CC[C@@H]1/C=C(\\C)C[C@H](C)C[C@H](OC)[C@H]2O[C@@](O)(C(=O)C(=O)N3CCCC[C@H]3C(=O)O[C@H](/C(C)=C/[C@@H]3CC[C@H](Cl)[C@H](OC)C3)[C@H](C)[C@@H](O)CC1=O)[C@H](C)C[C@@H]2OC", "note": "[pimecrolimus]", "values": [{"measurement": "follicular growth pattern in the ovaries", "setting": "[1]", "result": "restored follicular growth pattern"}, {"measurement": "ovarian cyst formation", "setting": "[1]; p<0.001", "result": "inhibited the development of ovarian cysts"}, {"measurement": "ovarian follicular atresia", "setting": "[1]; vs untreated HFD-NZO", "result": "significantly inhibited ovarian follicular atresia (p<0.01)"}, {"measurement": "weight loss", "setting": "[2]", "result": "induced statistically significant weight loss"}, {"measurement": "embryonic and fetal absorption rate", "setting": "[3]; same treatments, p<0.05", "result": "significantly reduced embryonic and fetal absorption rate"}, {"measurement": "implantation rate", "setting": "[3]; tacrolimus 0.05 and 0.1 mg/kg, pimecrolimus 0.1 mg/kg, sirolimus 0.1 mg/kg s.c. every other day for three weeks", "result": "significantly improved implantation rate (p<0.05)"}, {"measurement": "fasting basal serum glucose", "setting": "[4]; [6]", "result": "maintained low fasting basal serum glucose and insulin levels"}, {"measurement": "fasting basal serum insulin", "setting": "[4]; [6]", "result": "maintained low fasting basal serum glucose and insulin levels"}, {"measurement": "glucose intolerance", "setting": "[4]; 0.1 mg/kg, FIG. 17C, p=0.0001", "result": "significantly reduced glucose intolerance although to a lesser degree than tacrolimus"}, {"measurement": "insulin secretion in response to a hyperglycemic challenge", "setting": "[4]; tacrolimus 0.1 or 0.05 mg/kg, pimecrolimus 0.1 mg/kg, sirolimus 0.1 mg/kg s.c. every other day for 3 weeks, vs vehicle", "result": "significantly improved insulin secretion"}, {"measurement": "insulin resistance (HOMA-IR)", "setting": "[5]; p<0.001 vs vehicle", "result": "significantly reduced insulin resistance"}, {"measurement": "insulin sensitivity (Si)", "setting": "[5]; p<0.01 vs vehicle", "result": "enhanced insulin sensitivity"}, {"measurement": "pancreatic β-cell function (HOMA-B)", "setting": "[5]; p<0.05 vs vehicle", "result": "enhanced pancreatic β-cell function"}]}]}
